The target of this assay is ROCK2 (Homo sapiens, UniProt O75116). As to the kind of experiment: ROCK assay: phosphorylation of FITC peptide substrate, LABCHIP 3000 mobility shift. Conditions: 5 μM ATP, 1.5 μM peptide substrate; read-out: ROCK2 Activity (ROCK IC50 range). It counts as biochemical. In short, it runs like this:
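IC50 values come from curve-fitting percent kinase inhibition across a compound dilution series. The reaction is started with Rho kinase variant in HEPES pH 7.5 buffer with MgCl2, Brij-35 and DTT, with 5 μM ATP, 1.5 μM FITC-labelled peptide and under 2% DMSO. After EDTA quench, product and substrate are separated by microfluidic mobility shift.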

Where a name gives a salt, the structure may show the parent alone.

As usually defined, the IC50 is the concentration that inhibits the measured activity by half.

Sequence of ROCK2 (O75116 whole entry, species assumed): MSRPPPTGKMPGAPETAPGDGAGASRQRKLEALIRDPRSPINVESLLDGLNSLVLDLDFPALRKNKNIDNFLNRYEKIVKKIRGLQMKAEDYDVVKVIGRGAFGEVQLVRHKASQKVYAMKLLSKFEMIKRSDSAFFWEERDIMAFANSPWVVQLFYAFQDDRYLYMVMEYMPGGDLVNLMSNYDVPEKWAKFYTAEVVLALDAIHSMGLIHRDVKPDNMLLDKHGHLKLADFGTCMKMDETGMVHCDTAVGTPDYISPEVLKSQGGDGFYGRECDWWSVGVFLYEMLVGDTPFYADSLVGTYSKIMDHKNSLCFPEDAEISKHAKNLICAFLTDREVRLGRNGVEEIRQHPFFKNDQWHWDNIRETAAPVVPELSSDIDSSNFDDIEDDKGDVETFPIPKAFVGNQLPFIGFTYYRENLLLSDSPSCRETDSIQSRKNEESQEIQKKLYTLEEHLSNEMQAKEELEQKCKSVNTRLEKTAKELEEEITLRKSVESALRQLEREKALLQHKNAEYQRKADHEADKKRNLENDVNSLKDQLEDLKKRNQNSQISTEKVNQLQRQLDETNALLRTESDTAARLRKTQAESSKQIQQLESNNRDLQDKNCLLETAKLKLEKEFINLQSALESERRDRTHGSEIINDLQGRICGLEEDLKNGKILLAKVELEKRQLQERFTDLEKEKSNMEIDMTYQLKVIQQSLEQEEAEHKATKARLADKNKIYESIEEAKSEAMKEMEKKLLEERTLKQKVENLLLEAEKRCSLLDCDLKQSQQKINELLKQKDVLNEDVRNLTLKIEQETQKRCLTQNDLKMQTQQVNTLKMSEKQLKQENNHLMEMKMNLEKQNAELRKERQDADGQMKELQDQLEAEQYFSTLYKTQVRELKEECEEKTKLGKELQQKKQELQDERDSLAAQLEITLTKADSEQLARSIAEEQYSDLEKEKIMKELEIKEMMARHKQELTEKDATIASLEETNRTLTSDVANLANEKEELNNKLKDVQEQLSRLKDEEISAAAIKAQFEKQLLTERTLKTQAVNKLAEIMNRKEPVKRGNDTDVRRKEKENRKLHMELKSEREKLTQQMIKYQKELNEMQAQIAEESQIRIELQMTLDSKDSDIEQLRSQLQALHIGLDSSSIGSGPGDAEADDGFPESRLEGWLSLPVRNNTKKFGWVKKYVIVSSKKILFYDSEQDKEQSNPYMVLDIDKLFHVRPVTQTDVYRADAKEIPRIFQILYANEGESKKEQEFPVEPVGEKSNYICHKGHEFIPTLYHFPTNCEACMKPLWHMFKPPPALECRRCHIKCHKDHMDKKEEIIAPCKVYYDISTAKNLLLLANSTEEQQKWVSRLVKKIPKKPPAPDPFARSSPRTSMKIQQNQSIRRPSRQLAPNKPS

In the case of `Cn1ccc(-c2ccc3c(C(=O)NC4CC5(C4)CC(c4n[nH]c(=O)c6ccccc46)C5)nn(CC(C)(C)O)c3c2)n1` (stereo not shown) [Example 145, 1-(2-hydroxy-2-methylpropyl)-6-(1-methyl-1H-pyrazol-3-yl)-N-((αR)-6-(4-oxo-3,4-dihydrophthalazin-1-yl)spiro[3.3]heptan-2-yl)-1H-indazole-3-carboxamide], the 50% inhibitory concentration (IC50) fell in the range of 2.01 to 5 nM.

`[H][C@]1(c2n[nH]c(=O)c3ccccc32)C[C@]2(C[C@@H](NC(=O)c3ccc4c(c3)COc3cncnc3-4)C2)C1` (stereo partly drawn) [Example 421, N-((aR)-6-(4-oxo-3,4-dihydrophthalazin-1-yl)spiro[3.3]heptan-2-yl)-6H-isochromeno[4,3-d]pyrimidine-8-carboxamide]: the half-maximal inhibitory concentration (IC50) was 15.1 to 100 nM.

As to `O=C(NC1CC2(C1)CC(c1n[nH]c(=O)c3ccccc13)C2)c1cnc(N2CCCC2)s1` [Example 70, N-((aR)-6-(4-oxo-3,4-dihydrophthalazin-1-yl)spiro[3.3]heptan-2-yl)-2-(pyrrolidin-1-yl)thiazole-5-carboxamide], the concentration for half-maximal inhibition (IC50) fell in the range of 2.01 to 5 nM.

For `[H][C@]1(c2n[nH]c(=O)c3ccccc32)C[C@]2(C[C@@H](NC(=O)c3cn4ccccc4n3)C2)C1` (stereo partly drawn) [Example 377, N-((aR)-6-(4-oxo-3,4-dihydrophthalazin-1-yl)spiro[3.3]heptan-2-yl)imidazo[1,2-a]pyridine-2-carboxamide], the IC50 lay in the range of 15.1 to 100 nM.

`[H][C@]1(c2n[nH]c(=O)c3ccccc32)C[C@]2(C[C@@H](NC(=O)c3cnn4cc(OCC(C)(C)OC(=O)[C@H](C)N)ccc34)C2)C1` (stereo partly drawn) [Example 270, (S)-2-methyl-1-((3-(((aR)-6-(4-oxo-3,4-dihydrophthalazin-1-yl)spiro[3.3]heptan-2-yl)carbamoyl)pyrazolo[1,5-a]pyridin-6-yl)oxy)propan-2-yl2-aminopropanoate, TFA]: the IC50 was in the range of 0.2 to 2 nM.

Turning to `[H][C@]1(c2n[nH]c(=O)c3ccccc32)C[C@]2(C[C@@H](NC(=O)c3cc4cccnc4[nH]3)C2)C1` (stereo partly drawn) [Example 312, N-((aR)-6-(4-oxo-3,4-dihydrophthalazin-1-yl)spiro[3.3]heptan-2-yl)-1H-pyrrolo[2,3-b]pyridine-2-carboxamide], the IC50 lay in the range of 5.1 to 15 nM.

As to `[H][C@]1(c2n[nH]c(=O)c3ccccc32)C[C@@]2(C[C@H](NC(=O)c3cc4ccccc4[nH]3)C2)C1` (stereo partly drawn) [Example 298, N-((aR)-6-(4-oxo-3,4-dihydrophthalazin-1-yl)spiro[3.3]heptan-2-yl)-1H-indole-2-carboxamide], the 50% inhibitory concentration (IC50) was in the range of 5.1 to 15 nM.

In the case of `CC(C)n1cc(-c2ccc3c(C(=O)NC4CC5(C4)CC(c4n[nH]c(=O)c6ccccc46)C5)cnn3c2)cn1` [Example 220, 6-(1-isopropyl-1H-pyrazol-4-yl)-N-((aR)-6-(4-oxo-3,4-dihydrophthalazin-1-yl)spiro[3.3]heptan-2-yl)pyrazolo[1,5-a]pyridine-3-carboxamide], the IC50 is 0.2 to 2 nM.

Take `O=C(NC1CC2(C1)CC(c1n[nH]c(=O)c3ccccc13)C2)c1cnn2cc(OCCN3CCCC3)ccc12` [Example 83, N-((aR)-6-(4-oxo-3,4-dihydrophthalazin-1-yl)spiro[3.3]heptan-2-yl)-6-(2-(pyrrolidin-1-yl)ethoxy)pyrazolo[1,5-a]pyridine-3-carboxamide]: the IC50 lay in the range of 0.2 to 2 nM.

Turning to `O=C(NC1CC2(C1)CC(c1n[nH]c(=O)c3ccccc13)C2)c1cnn2cc(N3CCOCC3)ccc12` [Example 76, 6-morpholino-N-((aR)-6-(4-oxo-3,4-dihydrophthalazin-1-yl)spiro[3.3]heptan-2-yl)pyrazolo[1,5-a]pyridine-3-carboxamide], the concentration for half-maximal inhibition (IC50) lay within 2.01 to 5 nM.

`[H][C@]1(c2n[nH]c(=O)c3ccccc32)C[C@]2(C[C@@H](NC(=O)c3cnc4cc(SC)ccn34)C2)C1` (stereo partly drawn) [Example 414, 7-(methylthio)-N-((aR)-6-(4-oxo-3,4-dihydrophthalazin-1-yl)spiro[3.3]heptan-2-yl)imidazo[1,2-a]pyridine-3-carboxamide]: the half-maximal inhibitory concentration (IC50) lay within 0.2 to 2 nM.

Regarding `Cc1nn(C)c(C)c1-c1ccc2c(c1)CCN2C(=O)NC1CC2(C1)CC(c1n[nH]c(=O)c3ccccc13)C2` [Example 237, N-((aR)-6-(4-oxo-3,4-dihydrophthalazin-1-yl)spiro[3.3]heptan-2-yl)-5-(1,3,5-trimethyl-1H-pyrazol-4-yl)indoline-1-carboxamide], the IC50 is 2.01 to 5 nM.

`O=C(N[C@H]1CC2(C1)C[C@H](c1n[nH]c(=O)c3ccccc31)C2)c1cnn2cccc(C3CC3)c12` (stereo partly drawn) [Example 462, 4-cyclopropyl-N-((aR)-6-(4-oxo-3,4-dihydrophthalazin-1-yl)spiro[3.3]heptan-2-yl)pyrazolo[1,5-a]pyridine-3-carboxamide]: the IC50 fell in the range of 15.1 to 100 nM.

For the molecule `[H][C@]1(c2n[nH]c(=O)c3ccccc32)C[C@]2(C[C@@H](NC(=O)c3cn(C)c4ccccc34)C2)C1` (stereo partly drawn) [Example 364, 1-methyl-N-((aR)-6-(4-oxo-3,4-dihydrophthalazin-1-yl)spiro[3.3]heptan-2-yl)-1H-indole-3-carboxamide], the IC50 was 5.1 to 15 nM.

In the case of `COc1ccc(C(=O)NC2CC3(C2)CC(c2n[nH]c(=O)c4ccccc24)C3)nc1` [Example 351, 5-methoxy-N-((aR)-6-(4-oxo-3,4-dihydrophthalazin-1-yl)spiro[3.3]heptan-2-yl)picolinamide], the IC50 was 100 to 2100 nM.

As to `O=C(N[C@H]1CC2(C1)C[C@H](c1n[nH]c(=O)c3ccccc31)C2)c1cnn2cc(O[C@@H]3CCOC3)ccc12` (stereo partly drawn) [Example 121, N-((aR)-6-(4-oxo-3,4-dihydrophthalazin-1-yl)spiro[3.3]heptan-2-yl)-6-((tetrahydrofuran-3-yl)oxy)pyrazolo[1,5-a]pyridine-3-carboxamide], the 50% inhibitory concentration (IC50) was in the range of 0.2 to 2 nM.

Regarding `O=C(NC1CC2(C1)CC(c1n[nH]c(=O)c3ccccc13)C2)c1cnn2cc(OC3CCOC3)ccc12` [Example 105, N-((aR)-6-(4-oxo-3,4-dihydrophthalazin-1-yl)spiro[3.3]heptan-2-yl)-6-((tetrahydrofuran-3-yl)oxy)pyrazolo[1,5-a]pyridine-3-carboxamide], the IC50 was in the range of 0.2 to 2 nM.

Regarding `[H][C@]1(c2n[nH]c(=O)c3ccccc32)C[C@]2(C[C@@H](NC(=O)c3nc(C(C)C)n4c3CCCC4)C2)C1` (stereo partly drawn) [Example 388, 3-isopropyl-N-((aR)-6-(4-oxo-3,4-dihydrophthalazin-1-yl)spiro[3.3]heptan-2-yl)-5,6,7,8-tetrahydro-imidazo[1,5-a]pyridine-1-carboxamide], the 50% inhibitory concentration (IC50) lay in the range of 2.01 to 5 nM.

In the case of `Cn1cc(-c2ccc3c(c2)CN(C(=O)NC2CC4(C2)CC(c2n[nH]c(=O)c5ccccc25)C4)C3)c(C(F)(F)F)n1` [Example 248, 5-(1-methyl-3-(trifluoromethyl)-1H-pyrazol-4-yl)-N-((aR)-6-(4-oxo-3,4-dihydrophthalazin-1-yl)spiro[3.3]heptan-2-yl)isoindoline-2-carboxamide], the concentration for half-maximal inhibition (IC50) lay in the range of 5.1 to 15 nM.

Turning to `O=C(NC1CC2(C1)CC(c1n[nH]c(=O)c3ccccc13)C2)c1cnn2cc(OC3CCC(F)(F)CC3)ccc12` (stereo not drawn) [Example 134, 6-((4,4-difluorocyclohexyl)oxy)-N-((αR)-6-(4-oxo-3,4-dihydrophthalazin-1-yl)spiro[3.3]heptan-2-yl)pyrazolo[1,5-α]pyridine-3-carboxamide], the IC50 lay within 0.2 to 2 nM.

For `[H][C@]1(c2n[nH]c(=O)c3ccccc32)C[C@]2(C[C@@H](NC(=O)C3NCc4ccccc43)C2)C1` (stereo partly drawn) [Example 323, N-((aR)-6-(4-oxo-3,4-dihydrophthalazin-1-yl)spiro[3.3]heptan-2-yl)isoindoline-1-carboxamide], the IC50 was 100 to 2100 nM.

Turning to `COc1ccn2ncc(C(=O)NC3CC4(C3)CC(c3n[nH]c(=O)c5ccccc35)C4)c2c1` [Example 64, 5-methoxy-N-((aR)-6-(4-oxo-3,4-dihydrophthalazin-1-yl)spiro[3.3]heptan-2-yl)pyrazolo[1,5-a]pyridine-3-carboxamide], the IC50 lay within 5.1 to 15 nM.

In the case of `Cc1nc(N2CCC(C#N)C2)sc1C(=O)NC1CC2(C1)CC(c1n[nH]c(=O)c3ccccc13)C2` [Example 38, 2-[(3S)-3-cyanopyrrolidin-1-yl]-4-methyl-N-[(aR)-6-(4-oxo-3,4-dihydrophthalazin-1-yl)spiro[3.3]heptan-2-yl]-1,3-thiazole-5-carboxamide], the IC50 was 5.1 to 15 nM.

Take `[H][C@]1(c2n[nH]c(=O)c3ccccc32)C[C@@]2(C[C@H](NC(=O)c3cc4c(Cl)cccc4n3C)C2)C1` (stereo partly drawn) [Example 297, 4-chloro-1-methyl-N-((aR)-6-(4-oxo-3,4-dihydrophthalazin-1-yl)spiro[3.3]heptan-2-yl)-1H-indole-2-carboxamide]: the concentration for half-maximal inhibition (IC50) is 2.01 to 5 nM.

With `CC(C)n1cc(-c2ccc3c(c2)CN(C(=O)NC2CC4(C2)CC(c2n[nH]c(=O)c5ccccc25)C4)C3)c(C(F)(F)F)n1` [Example 249, 5-(1-isopropyl-3-(trifluoromethyl)-1H-pyrazol-4-yl)-N-((aR)-6-(4-oxo-3,4-dihydrophthalazin-1-yl)spiro[3.3]heptan-2-yl)isoindoline-2-carboxamide], the IC50 is 5.1 to 15 nM.

For `CC(C)(O)Cn1nc(C(=O)NC2CC3(C2)CC(F)(c2n[nH]c(=O)c4ccccc24)C3)c2ccccc21` (stereo not shown) [Example 162, N-(6-fluoro-6-(4-oxo-3,4-dihydrophthalazin-1-yl)spiro[3.3]heptan-2-yl)-1-(2-hydroxy-2-methylpropyl)-1H-indazole-3-carboxamide], the concentration for half-maximal inhibition (IC50) lay in the range of 15.1 to 100 nM.

For `[H][C@]1(c2n[nH]c(=O)c3ccccc32)C[C@]2(C[C@@H](NC(=O)c3ccc4c(c3)ncn4C(C)C)C2)C1` (stereo partly drawn) [Example 307, 1-isopropyl-N-((aR)-6-(4-oxo-3,4-dihydrophthalazin-1-yl)spiro[3.3]heptan-2-yl)-1H-benzo[d] imidazole-5-carboxamide], the IC50 fell in the range of 5.1 to 15 nM.

As for `Cn1cc(-c2cnc(C(=O)N[C@H]3CC4(C3)C[C@H](c3n[nH]c(=O)c5ccccc53)C4)c(F)c2)cn1` (stereo partly drawn) [Example 463, 3-fluoro-5-(1-methyl-1H-pyrazol-4-yl)-N-((aR)-6-(4-oxo-3,4-dihydrophthalazin-1-yl)spiro[3.3]heptan-2-yl)picolinamide], the IC50 lay in the range of 15.1 to 100 nM.
